Experimental data as given in PMC6063907, “Metal-cation regulation of enzyme dynamics is a key factor influencing the activity of S-adenosyl-L-homocysteine hydrolase from Pseudomonas aeruginosa” (Scientific Reports, 2018).
Where two headings read alike, the source gives them in different places.

Experiments:
wild type (WT) PaSAHase [1] = molecular target: T1, wild type (WT) PaSAHase (Pseudomonas aeruginosa, UniProt Q9I685); assay: ITC titration of wild type PaSAHase with adenosine; assay type: binding; conditions: for stoichiometry (N) / ΔH / ΔS / Kd: pH 7.5, 293 K; for Kd: dissociation constant Kd
T1 construct: His-tag with TEV site (from vector pMCSG57) (N, cleaved yes); made in house; host or cells: E. coli BL21-CodonPlus(DE3)-RIPL
Method: (§1) ITC measurements were performed at 293 K using a MicroCal iTC200 calorimeter (GE Healthcare). For the adenosine binding studies, the wild type protein was dialyzed against a buffer containing 100 mM MeCl and 25 mM HEPES·MeOH pH 7.5, or an alkali-cation-free buffer containing 100 mM Tris·HCl pH 7.5. The experiment for the Q65A mutein was conducted in a buffer containing 100 mM KCl and 25 mM HEPES·KOH pH 7.5. The final protein concentrations were in the range of 100–120 µM. Adenosine was dissolved in the dialysis buffers to the concentrations of 0.6 to 1.0 mM. The K^+ ion binding study was conducted in 50 mM Tris·HCl pH 7.5 at PaSAHase concentration of 70 μM. The protein was titrated with 1 mM KCl in 50 mM Tris·HCl pH 7.5. The Zn^2+ ion binding study was conducted in a buffer containing 100 mM KCl and 50 mM Tris·HCl pH 7.5 at PaSAHase concentration of 45 μM. The protein was titrated with 2 mM ZnCl2. In all ITC experiments the ligand was injected to the protein solution (300 μL) in 2 µL aliquots until saturation was observed. The protein concentrations were estimated by the Bradford method and are presented for a single PaSAHase subunit. The raw ITC data were analyzed with the ORIGIN 7.0 software (OriginLab) to obtain the thermodynamic parameters of the complexation reactions: stoichiometry (N), dissociation constant (Kd), as well as changes in enthalpy (ΔH) and entropy (ΔS). For sigmoidal titration curves, the one set of sites model was fitted and N was obtained from the experiment. For hyperbolic curves, for which the determination of N is impossible, N was fixed while fitting the same model. All measurements were performed in duplicates.

Q65A PaSAHase [2] = molecular target: T2, Q65A PaSAHase (Pseudomonas aeruginosa, UniProt Q9I685, Q65A); assay: ITC titration of Q65A PaSAHase with adenosine; assay type: binding
T2 construct: His-tag with TEV site (from vector pMCSG57) (N, cleaved yes); made in house; host or cells: E. coli BL21-CodonPlus(DE3)-RIPL
Method: as §1

wild type (WT) PaSAHase [3] = molecular target: T1, wild type (WT) PaSAHase; assay type: biochemical; conditions: WT enzyme; for kcat/KM: 100 mM MeCl, 25 mM HEPES·MeOH pH 7.5, substrate SAH, 293 K, ± SEM
Method: (§2) Assays for PaSAHase activity in the hydrolytic direction were carried out spectrophotometrically and the rate of L-homocysteine (Hcy) formation was measured by monitoring its reaction with 5,5′-dithiobis(2-nitrobenzoic acid) (DTNB)[21]. Assays were performed in 3 mL volume in a buffer containing 100 mM MeCl (where Me^+ corresponds to Li^+, Na^+, K^+, Rb^+, or Cs^+ ion) and 25 mM HEPES·MeOH pH 7.5, or a buffer containing 100 mM Tris·HCl pH 7.5. For the Q65A mutein, the experiments were conducted in a buffer containing 100 mM KCl and 25 mM HEPES·KOH pH 7.5. The buffers were supplemented with six units of adenosine deaminase, 100 μM DTNB, and 0.32 μM of PaSAHase or its mutein. The reaction was initiated by the addition of S-adenosyl-L-homocysteine (SAH) at a final concentration from 2.5 to 200 μM. The conversion of Hcy to Hcy-TNB was carried out at 293 K. The reaction progress was measured for one minute and monitored at 412 nm using a U-3900H spectrophotometer (Hitachi). Initial velocity parameters were estimated from the linear region of the recorded curve.
(§3) For the inhibition study, PaSAHase (0.35 μM) in a buffer containing 100 mM KCl and 25 mM Tris·HCl pH 7.5 was incubated with Zn^2+ at different concentrations, ranging from 0.165 to 20 μM. The reaction was initiated by the addition of SAH at a final concentration of 85 μM. The enzymatic activity was followed in the hydrolytic direction by monitoring homocysteine formation via its reaction with DNTB to determine the IC50 constant. For the sample without the addition of Zn^2+ ions, 100% activity was assigned. All measurements were performed in duplicates. The experimental data were analyzed with the GraFit 7.0 software (Erithacus) to obtain the kinetic parameters of the enzymatic reactions: substrate affinity (KM), activity (Vmax), as well as catalytic rate (kcat) or IC50 value for inhibition. The IC50-to-Ki converter[61] was applied to calculate the inhibition constant (Ki) for Zn^2+ ions using the noncompetitive model of inhibition.

PaSAHase [4] = molecular target: T3, PaSAHase (Pseudomonas aeruginosa, UniProt Q9I685); assay: Inhibition of PaSAHase by Zn^2+ ions (DTNB assay); assay type: biochemical; conditions: 100 mM KCl; for Ki: calculated from IC50 with IC50-to-Ki converter, noncompetitive model, 25 mM Tris·HCl pH 7.5, SAH 85 μM, enzyme 0.35 μM, read-out: inhibitory constant Ki
T3 construct: His-tag with TEV site (from vector pMCSG57) (N, cleaved yes); made in house; host or cells: E. coli BL21-CodonPlus(DE3)-RIPL
T3 sequence (Q9I685 1-469): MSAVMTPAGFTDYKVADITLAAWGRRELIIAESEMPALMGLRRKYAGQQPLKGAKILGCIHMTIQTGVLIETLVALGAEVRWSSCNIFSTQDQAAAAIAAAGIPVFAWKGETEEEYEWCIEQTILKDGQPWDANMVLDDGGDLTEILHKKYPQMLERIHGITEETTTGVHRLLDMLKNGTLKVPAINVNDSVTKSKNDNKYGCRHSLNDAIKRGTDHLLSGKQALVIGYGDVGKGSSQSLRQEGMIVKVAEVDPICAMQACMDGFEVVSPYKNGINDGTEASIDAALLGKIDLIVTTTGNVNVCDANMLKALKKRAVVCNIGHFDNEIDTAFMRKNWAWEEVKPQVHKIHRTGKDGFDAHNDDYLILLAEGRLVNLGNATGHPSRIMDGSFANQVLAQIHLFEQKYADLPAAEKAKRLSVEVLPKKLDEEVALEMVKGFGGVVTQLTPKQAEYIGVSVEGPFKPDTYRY
Method: as §3

PaSAHase [5] = molecular target: T3, PaSAHase; assay: ITC titration of PaSAHase with metal ions (Zn^2+, K^+); assay type: binding
Method: as §1

PaSAHase [6] = molecular target: T3, PaSAHase; assay: Time course of PaSAHase inactivation by 2′-deoxyadenosine (NADH formation, spectrofluorimetric); assay type: biochemical
Method: The measurements were performed at 293 K using an F-7000 spectrofluorotometer (Hitachi) in the volume of 1 mL. Irreversible formation of the reduced form of the cofactor (NADH) was monitored spectrofluorometrically by excitation at 340 nm and measurement of emission at 460 nm, as described previously. The influence of K^+ and Rb^+ ions on the time-dependent inactivation of the enzyme was carried out for 15 μM PaSAHase in a buffer containing 100 mM KCl or RbCl, 25 mM HEPES·KOH or HEPES·RbOH pH 7.5, and 1 mM TCEP·HCl. In the first experiment, the reaction was initiated by the addition of 2′-deoxyadenosine to the final concentration of 5 mM. In the second experiment, the enzyme was incubated for 2 hours with 100 μM adenosine and subsequently 2′-deoxyadenosine was added at a final concentration of 200 μM. After one minute the reaction was monitored for 4000 seconds (first experiment) or until the intensity of fluorescence emission reached a plateau (second experiment). An analogous experiment was carried out to analyze the influence of Zn^2+ cations on the enzyme. […] The cofactor conversion reaction was initiated by the addition of 2′-deoxyadenosine to the final concentration of 5 mM and after one minute was monitored for 5000 seconds.

Q65A PaSAHase [7] = molecular target: T2, Q65A PaSAHase; assay type: biochemical; conditions: Q65A mutein, 100 mM KCl, 25 mM HEPES·KOH pH 7.5, substrate SAH, 293 K; ± SEM
Method: as §2, §3

human placental SAHase = molecular target: human placental SAHase; set-up: method as in PMID 17892301; conditions: read-out: inhibition constant; cited from earlier work
[8] = molecular target: the molecule itself; assay: SEC; Superdex 200 gel filtration in buffer D (100 mM KCl, 25 mM HEPES-KOH pH 7.5, 1 mM TCEP-HCl), after reconstitution with NAD+
[9] = Q65A, 100 mM K^+, pH 7.5, 293 K

T2 sequence (Q9I685 whole entry Q65A): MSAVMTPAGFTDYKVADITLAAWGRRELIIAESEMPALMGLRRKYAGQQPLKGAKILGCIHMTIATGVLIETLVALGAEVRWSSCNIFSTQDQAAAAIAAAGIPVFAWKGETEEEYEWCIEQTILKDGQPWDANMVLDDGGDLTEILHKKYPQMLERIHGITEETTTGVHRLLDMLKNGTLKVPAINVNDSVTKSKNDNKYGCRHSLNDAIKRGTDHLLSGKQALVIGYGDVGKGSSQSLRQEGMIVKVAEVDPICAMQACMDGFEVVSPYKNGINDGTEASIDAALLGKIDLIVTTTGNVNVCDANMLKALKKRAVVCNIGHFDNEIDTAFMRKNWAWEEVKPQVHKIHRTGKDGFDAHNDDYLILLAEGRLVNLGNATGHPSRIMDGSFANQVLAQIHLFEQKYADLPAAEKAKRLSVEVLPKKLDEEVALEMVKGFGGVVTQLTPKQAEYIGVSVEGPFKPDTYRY

Molecule: Nc1ncnc2c1ncn2[C@@H]1O[C@H](CO)[C@@H](O)[C@H]1O [adenosine]
- stoichiometry (N) (wild type (WT) PaSAHase [1]; 100 mM Cs^+): 0.94 ± 0.02
- ΔH (wild type (WT) PaSAHase [1]; 100 mM Cs^+): -4.174 ± 0.115 kcal/mol
- ΔS (wild type (WT) PaSAHase [1]; 100 mM Cs^+): 10.1 cal/mol/°
- stoichiometry (N) (wild type (WT) PaSAHase [1]; 100 mM K^+): 0.80 ± 0.01
- ΔH (wild type (WT) PaSAHase [1]; 100 mM K^+): -9.665 ± 0.237 kcal/mol
- ΔS (wild type (WT) PaSAHase [1]; 100 mM K^+): −5.9 cal/mol/°
- stoichiometry (N) (wild type (WT) PaSAHase [1]; 100 mM Na^+): 0.97 ± 0.02
- ΔH (wild type (WT) PaSAHase [1]; 100 mM Na^+): -3.891 ± 0.114 kcal/mol
- ΔS (wild type (WT) PaSAHase [1]; 100 mM Na^+): 9.8 cal/mol/°
- stoichiometry (N) (wild type (WT) PaSAHase [1]; 100 mM Rb^+): 0.84 ± 0.01
- ΔH (wild type (WT) PaSAHase [1]; 100 mM Rb^+): -8.935 ± 0.137 kcal/mol
- ΔS (wild type (WT) PaSAHase [1]; 100 mM Rb^+): −4.2 cal/mol/°
- Kd (wild type (WT) PaSAHase [1]; 100 mM Cs^+): 4700 ± 600 nM
- Kd (wild type (WT) PaSAHase [1]; 100 mM K^+): 1200 ± 200 nM
- Kd (wild type (WT) PaSAHase [1]; 100 mM Na^+): 8800 ± 1000 nM
- Kd (wild type (WT) PaSAHase [1]; 100 mM Rb^+): 1800 ± 200 nM
- heat effect of ITC titration (wild type (WT) PaSAHase [1]; in the absence of any alkali metals or the presence of Li^+ ions): immeasurably small
- Kd (Q65A PaSAHase [2]): 7300 ± 400 nM
- stoichiometry (N) (Q65A PaSAHase [2]; [9]): 0.236 ± 0.004
- ΔH (Q65A PaSAHase [2]; [9]): -7.447 ± 0.167 kcal/mol

Molecule: [Li+] [Li^+]
- kcat/KM (wild type (WT) PaSAHase [3]): 731 ± 143 M⁻¹ s⁻¹

Molecule: [Cs+] [Cs^+]
- kcat/KM (wild type (WT) PaSAHase [3]): 6668 ± 333 M⁻¹ s⁻¹

Molecule: [Zn+2] [Zn^2+]
- mode of inhibition (PaSAHase [4]; 25 mM Tris·HCl pH 7.5): very strong noncompetitive inhibitor
- Ki (PaSAHase [4]; listed as zinc): ~15 nM
- Ki (PaSAHase [4]): 15 nM
- stoichiometry of protein:Zn^2+ binding, per one subunit (PaSAHase [5]; 100 mM KCl, 50 mM Tris·HCl pH 7.5, 45 μM enzyme, 2 mM ZnCl2, 293 K): 0.90 ± 0.06
- Kd (PaSAHase [5]; 100 mM KCl, 50 mM Tris·HCl pH 7.5, 45 μM enzyme, 2 mM ZnCl2, 293 K, read-out: apparent binding constant Kd): 12700 ± 2900 nM
- rate of NADH formation (PaSAHase [6]; 100 mM KCl, enzyme incubated with adenosine (200 μM) and ZnCl2 (1, 5 or 10 μM), then 5 mM 2′-deoxyadenosine): gradually decreased with increasing Zn^2+ concentration

Molecule: [Rb+] [Rb^+]
- kcat/KM (wild type (WT) PaSAHase [3]): 3568 ± 237 M⁻¹ s⁻¹
- mode of inhibition (wild type (WT) PaSAHase [3]; 100 mM RbCl, kinetics with SAH): noncompetitive inhibitor
- drop of kcat compared with K^+ (wild type (WT) PaSAHase [3]; relative to kcat in the presence of K^+): ~33 fold
- rate of NADH formation compared with K^+ (PaSAHase [6]; enzyme first incubated with 100 μM adenosine, then 200 μM 2′-deoxyadenosine added, 100 mM RbCl): significantly lower

Molecule: [K+] [K^+]
- kcat/KM (Q65A PaSAHase [7]): 5322 ± 358 M⁻¹ s⁻¹
- kcat/KM (wild type (WT) PaSAHase [3]): 72502 ± 4858 M⁻¹ s⁻¹
- heat effect of ITC titration of ligand- and alkali-metal-free PaSAHase (PaSAHase [5]; 50 mM Tris·HCl pH 7.5, 70 μM PaSAHase, titrated with 1 mM KCl): No effect other than K^+ dilution heat

Molecule: [Cu+2] [copper]
- Ki (human placental SAHase): ~25 nM

Molecule: [Na+] [Na^+]
- kcat/KM (wild type (WT) PaSAHase [3]): 8467 ± 940 M⁻¹ s⁻¹

B1: S-adenosyl-L-homocysteine hydrolase from Pseudomonas aeruginosa (enzyme, Pseudomonas aeruginosa PAO1)
chain: SNAMSAVMTPAGFTDYKVADITLAAWGRRELIIAESEMPALMGLRRKYAGQQPLKGAKILGCIHMTIQTGVLIETLVALGAEVRWSSCNIFSTQDQAAAAIAAAGIPVFAWKGETEEEYEWCIEQTILKDGQPWDANMVLDDGGDLTEILHKKYPQMLERIHGITEETTTGVHRLLDMLKNGTLKVPAINVNDSVTKSKNDNKYGCRHSLNDAIKRGTDHLLSGKQALVIGYGDVGKGSSQSLRQEGMIVKVAEVDPICAMQACMDGFEVVSPYKNGINDGTEASIDAALLGKIDLIVTTTGNVNVCDANMLKALKKRAVVCNIGHFDNEIDTAFMRKNWAWEEVKPQVHKIHRTGKDGFDAHNDDYLILLAEGRLVNLGNATGHPSRIMDGSFANQVLAQIHLFEQKYADLPAAEKAKRLSVEVLPKKLDEEVALEMVKGFGGVVTQLTPKQAEYIGVSVEGPFKPDTYRY
notes: short tripeptide (SNA-) cloning artifact that extends the N-terminus of the purified protein; S-adenosyl-L-homocysteine hydrolase, Pseudomonas aeruginosa PAO1; about 53 kDa by SDS-PAGE; Batches were either Zn2+-containing or freed of Zn2+ with TPEN; The vector pMCSG57 is named, the tag itself is not; also called PaSAHase; SAHase
- stoichiometry N [8]: 4
